The NIST ThermoML archive (doi:10.1021/acs.jced.8b00948)

Assay: xn = mol fraction of the nth substance listed
Conditions: for surface tension liquid-gas: Pendant drop shape; for viscosity: 101 kPa, Liquid, Concentric cylinders viscometry

COS(=O)(=O)[O-].Cn1cc[n+](C)c1 [1,3-dimethylimidazolium methylsulfate] + CCCCCO
Conditions	surface tension liquid-gas, 298.15 K [mN/m]	surface tension liquid-gas, 303.15 K [mN/m]	surface tension liquid-gas, 308.15 K [mN/m]	surface tension liquid-gas, 313.15 K [mN/m]	viscosity, 298.15 K [mPa·s]	viscosity, 303.15 K [mPa·s]	viscosity, 308.15 K [mPa·s]	viscosity, 313.15 K [mPa·s]
x1 = 0.1	28	27.6	27.2	26.9	9.23	7.19	6.2	5.25
x1 = 0.35	36.2	35.9	35.6	35.3	24.7	19.4	15.7	12.7
x1 = 0.54	42.6	42.3	42	41.7	38.2	29.9	24.1	19.8
x1 = 0.661	46.7	46.4	46.1	45.8	47.7	37.3	30	24.7
x1 = 0.79	51.1	50.8	50.5	50.3	58.9	46.5	37.5	30.8
x1 = 0.931	56.1	55.8	55.5	55.2	71.8	57.1	46	37.8
x1 = 1	58.5	58.2	57.9	57.6	78	61.9	49.9	40.9
